In US9796777B2, “Methods of treating malignant tumors” (Canimguide Therapeutics AB, priority 2007, dated 2017):

Columns and labels:
[1] = test system: PBMC; test: IL-2 induced proliferation of PBMC with albumin peptides in coated and uncoated tissue culture plates; type: cell-based, human; conditions: PBMC from healthy individuals; peptide 5 μg/ml final; 7 days
Experimental: A mixture of 1 mg/ml IgG in a solution of 9 mg/ml HSA in RPMI (HSA/IgG) was also prepared. 200 μl of HSA or HSA/IgG were then added to each well of the plate. The plates were incubated at 4° C. for 30 minutes after which the wells were washed twice with 200 μl of RPMI1640. The coated plates were used immediately. […] PBMC, isolated from healthy individuals, were diluted in RPMI/2% HSA and peptides were added directly to the cell suspension at a concentration of 10 μg/ml.

[2] = test system: PBMC; test: LPS-induced IL-6 production by PBMC, effect of peptides; type: cell-based, human
Experimental: 100 μl of culture medium consisting of RPMI1640 supplemented with 200 IU/ml penicillin, 200 μg/ml streptomycin, 4 mM L-glutamine (Sigma Chemical, Mo., US) and 20% fresh heat-inactivated autologous serum were added to un-coated or -pre-coated microtiter plates followed by 100 μl of PBMC suspension (5×10^4 lymphocytes) in RPMI/2% HSA with peptides at the indicated concentrations. Lipoplysaccharide (LPS, Sigma Chemical Co, MO, US) was added at a final concentration of 0.05 ng/ml. […] All assay conditions were set up in triplicate wells. Supernatants (SNs) were harvested after 24 hrs and residual cells were removed by centrifugation in a refrigerated centrifuge (Beckman) at 2600×g for 5 minutes. SNs were frozen and stored at −70° C. IL-6 in cell culture SNs was measured by ELISA using the DuoSet® ELISA development kit for human IL-6 (R&D Systems Europe, Ltd., Abingdon, UK) following the manufacturer's recommended procedures. The lower limit of detection was 3.1 pg/ml. Samples were analysed as mean of triplicate wells.

[3] = test system: natural killer (NK) cells; test: Cytotoxic activity of natural killer (NK) cells against K562 (NKTEST, flow cytometry); type: cell-based, human; conditions: four healthy donors; peptides 10 ug/ml; effector:target ratio 40:1
Experimental: Mononuclear cells were separated by standard Ficoll-paque Plus (Pharmacia AB, Sweden) density gradient centrifugation from heparinized blood obtained from healthy donors. NK cell cytotoxic activity of the mononuclear cells was then tested using a commercial kit (NKTEST, Orpegen Pharma GmbH, Heidelberg, Germany) following the manufacturers protocol. Briefly, the kit contains cryopreserved, NK-sensitive target cells (K562) labelled with a lipophilic green fluorescent membrane dye, which enables discrimination of effector and target cells. After incubation with effector cells, killed target cells are identified by a DNA-stain, which penetrates and specifically stain the nuclei of dead target cells. This way the percentage of killed targets can be determined by flow cytometry. The mononuclear cells were pre-incubated for 30 min at 37° C. with the indicated peptides (peptides have been described previously) at 10 ug/ml. Target cells were then added, giving an effector:target ratio of 40:1, and the cell mixture incubated at 37° C. for 3-4 hours. Samples were analysed on a FACSCalibur (BD Biosciences, San Jose, Calif.).

[4] = test system: cell surface receptors of immune cells (ACS); test: Adsorption of enzyme fragmented dHSA on affinity column with biotinylated cell surface proteins (ACS), MALDI-TOF ms; type: binding, human
Experimental: Based on the observation that immunoregulatory peptide sequences are present in serum albumin, there is the possibility that other sequences than the epitope of mAb A have immunoregulatory function. Therefore an artificial cell surface (ACS) was prepared as described in materials and methods. […]
To remove unfragmented albumin and enzyme, the sample was ultra filtered through an Amicon Ultra 4 (mw cut-off of 5000) or a Centriplus (mw cut-off 10000) centrifugal filter (Millipore AB, Solna, Sweden). The filtrate, containing fragmented dHSA without enzymes, was collected and diluted with PBS with Ca and Mg (GIBCO).
Buffy coats generated from 450 ml blood each was collected from 4 healthy donors. Erythrocytes were removed by sedimentation on 2% dextran T500 solution (Amersham Pharmacia Biotech AB, Uppsala Sweden) in 0.9% NaCl. Mononuclear cells (PBMC) were then isolated by Ficoll-Paque Plus (GE Healthcare Bioscience AB Sweden) density gradient centrifugation. The PBMC were then suspended in phosphate buffered saline (PBS) containing Ca and Mg (GIBCO) at a concentration of 10×10^6/ml. EZ Link Sulfo-NHS-biotin (Pierce USA) was added at a final concentration of 0.2 mg/ml and the mixture incubated on a shaker at room temperature for 10 min. Excess biotin was then removed by washing the PBMC in PBS. Biotinylated PBMC were then lysed by adding 1.0 ml ice-cold lysing buffer (50 mM Tris-HCL, pH 7.5, with 0.15 M NaCl, 5 mM MgCl2 containing 100 mM Octyl glucoside and 1 mM Phenylmethylsulfonyl fluoride) per 2×10^7 pelleted cells with gentle shaking, then incubated for 30 min. on ice. Debris was removed by centrifugation at 5000×g at 4° C. for 10 min and the supernatants was collected and pooled from all four donors. The lysate was then stored at −70° C. in polypropylene plastic tubes.
This amount of lysate corresponds to 36×10^7 mononuclear cells. It was added to a 1 ml Hitrap Streptavidin HP affinity column (Amersham Biosciences). To block possible remaining free biotin, 5 ml of 0.1 M glycine (Sigma) was added to the column. Unsaturated streptavidin on the column was then reacted with 150 ug biotin (Sigma) in binding buffer. The column was carefully washed with PBS and stored in PBS with 0.1% NaN3 at 4° C. until use.
27 ml biotinylated cell lysate in binding buffer (corresponding to 54×10^7 mononuclear cells) was added to 1.5 ml washed Streptavidin Sepharose HP (Amersham Biosciences). To block possible remaining free biotin, 25 ml of 0.1 M glycine (Sigma) was added to the Streptavidin Sepharose. Unsaturated streptavidin was then reacted with 225 μg biotin (Sigma) in binding buffer. The Streptavidin Sepharose was carefully washed in PBS. One ml of the biotinylated cell lysate coupled Streptavidin Sepharose was then packed in an empty column (Tricorn Empty High Performance Column, Amersham Bioscience) and washed with phosphate buffered saline (PBS) containing Ca and Mg (GIBCO).
The flow-through was collected with consideration taken to void volume and dilution of adsorbed sample by collecting in small portions of 0.2 ml. Thirty ul of each sample, including a control sample that has not been adsorbed, were dried in a Speed-Vac centrifuge.
Dried samples were reconstituted in 10 ul of 0.1% TFA. Zip Tip pipette tips (Millipore, USA) containing C18 reversed-phase media were used for desalting reconstituted samples. […] For the analysis of samples in the mass range 1500-9000 Da, one μl of each Zip Tip eluted sample was mixed with 1 μl of sinapinic acid ([…]). […] Mass identity search of resulting spectra was performed in the SwissProt or NCBI databases using MS-Fit.

[5] = test system: PBMC; test: Human ex vivo model: IL-2 induced proliferation of PBMC in the presence of albumin peptides; conditions: alone or in combination
[6] = molecular target: T1, β2-integrin LFA-1 (CD11a) (Homo sapiens, UniProt P20701); test: Immunocytochemical staining of PBMC and THP-1 with anti-integrin (CD11a) antibody with or without albumin peptides; type: binding; conditions: for binding to LFA-1: Table 9 summary; for effect on binding of the LFA-1 antibody (HI 111) to LFA-1: mononuclear blood cells
T1 construct: endogenous in cells; host or cells: human PBMC (healthy controls, cancer patients) and THP-1 monocytic cell line (ATCC)
Experimental: Cytospin preparations of mononuclear blood cells from healthy controls, cancer patients and a monocytic cell line, THP-1, were prepared (as described under materials and methods), dried and stored at −70° C. In the immunocytological staining, unspecific staining was blocked by incubation with 10% human AB serum. Some of the slides were preincubated for 60 minutes with albumin peptides at a concentration of 40 μg/ml, added to this 10% AB serum, as indicated in the FIG. 8 A-F. The staining procedure was then continued as described in material and methods. The staining intensity of slides stained with and without preincubation with the peptides was recorded semi quantitatively using a standard light microscope.
PBMC were separated as described above. Cultured THP-1 cells (obtained from the American Type Culture Collection through LGL Nordic AB, Sweden) were carefully washed and suspended in RPMI1640. PBMC and THP-1 were immediately spun down on pre-cleaned microscope slides in a Shandon Cytospin (Shandon Scientific Ltd, UK) at 1000 RPM for 7 min at 2.5 or 5×10^4 cells per slide. The slides were left to dry at room temperature over night, after which they were wrapped in parafilm and stored at −70° C. Immediately before use, the cytospins were thawed and fixed with acetone for 5 min at room temperature. The cytospins were first blocked with 10% normal human AB-serum with and without albumin peptides (40 ␣g/ml) for 1 h before staining. Primary antibody, consisting of a monoclonal mouse anti-human CD11a (clone HI111, BD Biosciences) diluted in Tris buffered saline (TBS, pH 7.6) at 5 μg/ml (THP-1) or 1 µg/ml (PBMC), was added. The slides were incubated for 30 min and then washed in TBS followed by Envision-Alkaline Phosphatase (Dako Norden A/S, Denmark) for 30 min. After additional washing in TBS, the slides were incubated in alkaline phoshatase substrate consisting of Fast Red TR salt (Sigma), naphtol AS-MX (Sigma) and 5 mM levamisol (Sigma) to block endogenous alkaline phosphatase activity, for 20 min followed by washing in TBS. They were then counterstained in Mayer's haematoxylin for 1 minute and mounted in Glycergel (Dako Norden NS). Monoclonal mouse IgG1 against an irrelevant antigen (Aspergillus niger glukosoxidase, Dako Norden NS) was used as a negative control. All incubations were performed at room temperature in a moist chamber.
FIG. 24. Inhibition of the binding of anti-LFA-1, mab HI111, to mononuclear blood cells by 3028 peptide and fragments 3325 and 3218. A standard immunohistochemical staining procedure using acetone fixation, 10% human AB-serum for blocking, incubation with HI 111 and a secondary antibody (Ultravision, an alkaline phosphate conjugated polymer attached to Fab-fragments of goat anti-mouse Ig), followed by development with Fast Red. The slides were then mounted in Glycergel. Preincubation with peptides added to the AB serum was as follows: A. No peptide added, B. peptide 3028, C. The C-terminal part (3218), and D. The N-terminal part (3325).

[7] = test system: rabbit anti-3028; test: Inhibition of rabbit anti-3028 ELISA by albumin peptides; type: binding; conditions: Table 9 summary
Experimental: To test if albumin peptides inhibited the binding of the rabbit anti-3028 to 3028 coated wells, rabbit antisera, diluted 1/1000 000 in ELISA reagent diluent, was pre-incubated for 1 hr at room temperature with the indicated concentrations of the peptides. 100 μl of the […], or, alternatively, the monoclonal antibody mixed with peptides, was then added to 3028 coated wells and the ELISA carried out as described.

[8] = test system: PBMCs; test: PHA-induced proliferation of PBMC in the presence of albumin peptides and/or dHSA; type: cell-based, human; conditions: PBMCs from two healthy controls; two PHA concentrations
Text: Venous blood was drawn from healthy volunteers or from cancer patients in glass vacuum tubes with acid dextrose citrate solution A as anti-coagulant (Vacutainer, Becton Dickinson, Franklin Lakes, N.J.). Erythrocytes were removed by sedimentation on 2% dextran T500 solution (Amersham Pharmacia Biotech AB, Uppsala, Sweden) in 0.9% NaCl (this step was omitted for cultures with PHA-stimulation-see below). […] For cell cultures with PHA-stimulation, PBMC were washed in Hank's Balanced Salt Solution (HBSS) with 10% autologous plasma instead of RPMI/2% HSA. […] The cell suspension was stained with Turk's solution and the number of lymphocytes and monocytes in the PBMC preparation were counted in a hemocytometer. PBMCs were suspended in RPMI/2% HSA and the cell concentration adjusted to 5×10^5 lymphocytes/ml.
100 μl of the cell suspension were seeded into round-bottomed microtiter plates (Corning, N.Y., USA) followed by 100 μl of culture medium consisting of RPMI 1640 (Flow Laboratories, Irvine, Scotland) supplemented with 200 IU/ml Penicillin, 200 μg/ml Streptomycin (Flow laboratories) and 20% heat inactivated autologous serum. Phytohemagglutinin (PHA-P, Sigma Chemical Co, St. Louis, Mo.) at a final concentration of 5 or 10 μg/ml was then added.
All culture conditions were set up in triplicate wells. […] Mean values of disintegrations per minute (dpm) of triplicates were used for the calculations.

T1 sequence (P20701 26-1170): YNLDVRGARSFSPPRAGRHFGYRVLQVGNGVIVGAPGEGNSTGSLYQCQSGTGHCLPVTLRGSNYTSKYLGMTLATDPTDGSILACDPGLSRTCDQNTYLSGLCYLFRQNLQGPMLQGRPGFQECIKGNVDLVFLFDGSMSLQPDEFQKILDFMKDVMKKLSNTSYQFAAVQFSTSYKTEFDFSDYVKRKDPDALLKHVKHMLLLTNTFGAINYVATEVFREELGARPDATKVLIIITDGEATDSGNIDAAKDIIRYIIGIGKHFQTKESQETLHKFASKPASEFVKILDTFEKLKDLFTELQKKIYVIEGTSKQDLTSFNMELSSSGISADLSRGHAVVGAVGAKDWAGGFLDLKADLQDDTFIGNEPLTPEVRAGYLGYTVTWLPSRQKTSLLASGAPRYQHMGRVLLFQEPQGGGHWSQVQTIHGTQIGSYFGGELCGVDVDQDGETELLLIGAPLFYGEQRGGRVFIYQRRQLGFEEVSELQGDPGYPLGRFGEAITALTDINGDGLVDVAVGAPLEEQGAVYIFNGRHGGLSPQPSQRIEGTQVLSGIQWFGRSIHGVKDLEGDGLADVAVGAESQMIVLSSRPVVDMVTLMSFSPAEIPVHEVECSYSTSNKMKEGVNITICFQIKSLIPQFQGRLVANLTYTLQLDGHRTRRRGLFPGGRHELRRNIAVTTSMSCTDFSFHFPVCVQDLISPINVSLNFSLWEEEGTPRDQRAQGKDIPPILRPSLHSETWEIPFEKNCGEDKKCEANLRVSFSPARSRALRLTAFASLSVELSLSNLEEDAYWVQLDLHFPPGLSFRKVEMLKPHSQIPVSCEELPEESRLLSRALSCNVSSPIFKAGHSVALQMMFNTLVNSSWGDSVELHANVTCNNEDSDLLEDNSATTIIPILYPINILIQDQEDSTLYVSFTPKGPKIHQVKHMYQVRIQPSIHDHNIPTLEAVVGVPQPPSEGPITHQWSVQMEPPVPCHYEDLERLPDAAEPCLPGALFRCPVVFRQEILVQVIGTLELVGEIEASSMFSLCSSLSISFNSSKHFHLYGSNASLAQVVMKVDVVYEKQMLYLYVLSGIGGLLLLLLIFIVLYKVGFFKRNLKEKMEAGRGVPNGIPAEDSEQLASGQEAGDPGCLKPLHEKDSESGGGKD
T1 sequence (P05107 23-769 partner): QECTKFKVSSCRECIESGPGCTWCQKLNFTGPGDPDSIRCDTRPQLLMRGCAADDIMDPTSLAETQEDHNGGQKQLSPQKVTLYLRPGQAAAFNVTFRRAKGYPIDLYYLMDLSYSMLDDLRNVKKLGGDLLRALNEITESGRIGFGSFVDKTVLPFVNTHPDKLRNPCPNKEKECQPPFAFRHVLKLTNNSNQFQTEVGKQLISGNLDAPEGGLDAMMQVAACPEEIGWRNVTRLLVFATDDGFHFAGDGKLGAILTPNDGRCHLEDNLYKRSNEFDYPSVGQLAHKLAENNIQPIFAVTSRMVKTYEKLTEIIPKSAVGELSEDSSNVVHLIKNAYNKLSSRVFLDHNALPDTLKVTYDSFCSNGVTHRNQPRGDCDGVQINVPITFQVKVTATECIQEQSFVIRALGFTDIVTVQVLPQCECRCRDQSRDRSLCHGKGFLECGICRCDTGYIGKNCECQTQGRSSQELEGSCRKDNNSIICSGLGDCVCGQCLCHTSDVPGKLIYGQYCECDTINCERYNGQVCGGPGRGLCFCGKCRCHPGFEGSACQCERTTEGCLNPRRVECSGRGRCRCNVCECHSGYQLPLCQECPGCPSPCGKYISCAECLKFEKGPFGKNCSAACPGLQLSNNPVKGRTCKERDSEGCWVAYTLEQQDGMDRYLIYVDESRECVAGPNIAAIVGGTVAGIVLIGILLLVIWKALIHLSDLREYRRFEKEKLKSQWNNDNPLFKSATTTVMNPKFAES

Substance | effect on IL-2 induced proliferation [1] | effect on LPS induced IL-6 production ([2]; renal cell carcinoma patient) | effect on LPS induced IL-6 production ([2]; two healthy controls) | neutralisation of the inhibitory effect of peptide 3028 on IL-2 induced proliferation [5] | binding to LFA-1 [6] | effect on binding of the LFA-1 antibody (HI 111) to LFA-1 [6] | further results
ELFEQLGEYKFQNALLVR [peptide 3027] | no statistically significant activity | stimulatory effect | slightly stimulatory in one of the controls and had an inhibitory effect in the other |  |  |  | effect on LPS induced IL-6 production ([2]; melanoma patients): stimulated one of the melanoma patients; effect on percent specific lysis of K562 target cells [3]: Inhibition was not seen
KVPQVSTPTLVEVSR [compound 3029] | no statistically significant activity |  | slight stimulatory effect in only one of the controls |  |  |  | effect on LPS induced IL-6 production ([2]; three cancer patients): essentially no effects; Per cent adsorbed ([4]; Table 5 A, peptides generated by trypsin degradation of dHSA): 0.64 Per cent; Per cent adsorbed ([4]; Table 5 B, trypsin peptides selected for synthesis): 0.64 Per cent
VFDEFKPLVE [peptide 3325, N-terminal part of peptide 3028] |  |  |  | not neutralised | Weak binding | inhibit the binding of mAb HI 111 to LFA-1 | 
peptide 3218: C-terminal part of peptide 3028 (EPQNLIK) |  |  |  | not neutralised | Weak binding | inhibit the binding of mAb HI 111 to LFA-1 | binding to affinity purified antibodies [7]: Does not bind
NEETFLKKYLYEIARRHPYFYAP [peptide 3026] | no statistically significant activity | stimulatory effect |  |  |  |  | effect on LPS induced IL-6 production ([2]; healthy control PBMC1): clear biphasic effect; effect on LPS induced IL-6 production ([2]; healthy control PBMC 2): no certain effect; effect on dHSA modulated PHA stimulated proliferation [8]: inhibited the stimulatory activity of dHSA
